Results taken from US11260048B2, “Compounds and compositions for inhibiting retinal pigment epithelium degeneration and methods using the same” (The Schepens Eye Research Institute, Inc., priority 2017, dated 2022).
Entries after “also recorded” stand apart in the source; their conditions may differ.

Experiments:
ARPE-19 cells [1] = test: RPE protection assay: ox-LDL-induced cell death, LDH release; type: cell-based, Human; conditions: for cytotoxicity at 1.4 µM: compound 1.4 μM; for protective effect against ox-LDL-induced RPE cell death: high dose 10.4 μM; for cytotoxicity at 0.43 µM: compound 0.43 μM; for cytotoxicity at 4.3 µM: compound 4.3 μM; for relative RPE protective activity compared with other compounds: ox-LDL 200 μg/ml (FIGS. 5, 7)
Experimental: FIG. 2 is a graph showing dose-dependent inhibition of ox-LDL-induced RPE death by trolox. […] Data=mean±standard error of the mean (SEM), non-linear regression (GraphPad Prism 6).
FIGS. 5B and 5C are graphs showing RPE protection by selective anti-oxidants with a hindered phenol group. ARPE-19 cells were treated with ox-LDL (200 μg/ml) with and without different concentrations of various anti-oxidants. Cell death was measured by LDH release assay. Data=mean±SEM, *P<0.05, ***P<0.001 compared to ox-LDL group, ANOVA.
FIG. 6 is a graph comparing RPE protection activity of hindered phenol-containing 2,2,5,7,8-pentamethyl-6-chromanol (PMC) and selective inhibitors of nucleotide-binding domain, leucine-rich-containing family, pyrin domain-containing-3 (NLRP3) inflammasome activation. ARPE-19 cells were treated with ox-LDL (200 μg/ml) with and without different concentrations of PMC and selective inhibitors of NLRP3 inflammasome activation, MCC950 and isoliquiritigenin. Cell death was measured by LDH release assay. Data=mean±SEM, ***P<0.001 compared to ox-LDL group, ANOVA.
FIGS. 7B and 7C are graphs that show RPE protection by different experimental analogs of trolox and BHT. ARPE-19 cells were treated with ox-LDL (200 μg/ml) with and without different concentrations of the different analogs of trolox and BHT for 48 hours, cell death was determined by LDH assay. Note that many of the compounds were able to suppress ox-LDL-induced cell death similar to PMC. Data=mean±SEM, *P<0.05, ***P<0.001 compared to ox-LDL group, ANOVA.
ARPE-19 cells: Human ARPE-19 cells (ATCC, Manassas, Va.) were propagated as described previously (Tseng, W. A., et al., Invest Ophthalmol Vis Sci, 2013. 54(1): p. 110-20). Cells were cultured in DMEMIF12 medium (Lonza, Walkersville, Md.) supplemented with 10% fetal bovine serum (FBS) (Atlanta Biologicals, Lawrenceville, Ga.), 2 mM L-glutamine (Lonza), and 100 U/ml penicillin−100 μg/ml streptomycin (Lonza) (complete media), and passaged at a ratio of 1:2 to 1:4 using trypsin-versene (Lonza). Prior to experiments, cells were maintained in 1% FBS medium for about 3 weeks to obtain ARPE-19 cells with differentiated phenotypes. The transepithelial electrical resistance (TER) of each batch of ARPE-19 cells was measured in cells cultured on laminin-coated 0.4 μm-pore transwell membranes (Corning, Mass.) to ensure it was at least 50 ohm·cm2 (EVOM2 Voltohmmeter, World Precision Instruments, Inc., Sarasota, Fla.) before the cells were used for experiments.
ARPE-19 cells were treated with ox-LDL (200 μg/ml) with and without different concentrations of the selected analogs for 48 hours, cell death was determined by LDH assay.

NF-κB = NF-κB activation, nuclear translocation of NF-κB p65 by immunostaining; type: cell-based, Human; conditions: ox-LDL 200 μg/ml, trolox 10.4 μM, 36 hours (FIG. 4)
Experimental: (§1) Lysosomal integrity and NF-κB activation: ARPE-19 cells were treated with ox-LDL with and without different concentrations of trolox for 36 hours. Lysosomal integrity was determined by LysoTracker staining (ThermoFisher Scientific), followed by image analysis to quantify the number of intact lysosomes per cell. […] Antibody specific for NF-κB p65 (Cell Signaling, Danvers, Mass.) was used for the immunostaining.

ARPE-19 cells [2] = test: ox-LDL-induced ROS formation, ROS-ID Total ROS detection kit; conditions: ox-LDL 200 μg/ml, 28 hours (FIG. 1)
ARPE-19 cells [3] = test: Lysosomal integrity, LysoTracker staining; type: cell-based, Human
Experimental: FIG. 3 is a graph showing that trolox dose-dependently suppresses ox-LDL-induced lysosomal destabilization in RPE. ARPE-19 cells were treated with ox-LDL with and without different concentrations of trolox for 36 hours. Lysosomal integrity was determined by LysoTracker staining (ThermoFisher Scientific), followed by image analysis to quantify the number of intact lysosomes per cell. […] Data=mean±SEM, *P<0.05, **P<0.01, ***P<0.001 compared to ox-LDL group, analysis of variance (ANOVA).
as §1

[4] = Homo sapiens, ARPE-19, ox-LDL 200 μg/ml, 48 hours, LDH assay, read-out: Protective activity against 200 μg/ml ox-LDL (% cell death, compound concentration)

Compound | cytotoxicity at 1.4 µM (ARPE-19 cells [1]; [4]) [%] | cytotoxicity at 4.3 µM (ARPE-19 cells [1]; [4]) [%] | other results
Cc1c(C)c2c(c(C)c1O)CCC(C)(C(=O)N1CC(n3cccn3)C1)O2 (centres unmarked) [U] | < 10 | – | –
O=C(/C=C/c1ccc(O)cc1)c1ccc(O)cc1O [isoliquiritigenin, reference compound] | – | – | protective effect against ox-LDL-induced RPE cell death (ARPE-19 cells [1]; ox-LDL 200 μg/ml (FIG. 6)): only protected RPE cells at high dose
Cc1noc(C)c1CNC(=O)C1(C)CCc2c(C)c(O)c(C)c(C)c2O1 (centres unmarked) [M] | – | – | cytotoxicity at 0.43 µM (ARPE-19 cells [1]; [4]): < 10%
Cc1coc(C)c1CN(C)C(=O)C1(C)CCc2c(C)c(O)c(C)c(C)c2O1 (centres unmarked) [X] | ~22 | < 16 | –
Cc1c(C)c2c(c(C)c1O)CCC(C)(C(=O)O)O2 (centres unmarked) [trolox] | – | – | NF-κB activation upon ox-LDL treatment (NF-κB): suppressed pro-inflammatory transcription factor NF-κB activation; EC50 (ARPE-19 cells [1]; Homo sapiens, ARPE-19, ox-LDL 200 μg/ml, 48 hours, trolox 0.65-10.4 μM, LDH release (FIG. 2), read-out: estimated EC50, suppression of ox-LDL-induced RPE death): ~5.4 µM; relative RPE protective activity compared with other compounds (ARPE-19 cells [1]): significantly more effective; ox-LDL-induced ROS formation in RPE cells (ARPE-19 cells [2]): suppressed ROS formation; lysosomal integrity upon ox-LDL treatment (ARPE-19 cells [3]; ARPE-19, 36 hours (FIG. 3)): preserved lysosomal integrity; number of intact lysosomes per cell (ARPE-19 cells [3]; trolox 10.4 μM in the presence of ox-LDL, 36 hours): higher number of intact lysosomes per cell compared to control
Cc1c(C)c2c(c(C)c1O)CCC(C)(C(=O)N(C)Cc1n[nH]c(=O)[nH]1)O2 (centres unmarked) [W] | < 12 | – | –
CCN(Cc1ccccn1)C(=O)C1(C)CCc2c(C)c(O)c(C)c(C)c2O1 (centres unmarked) [T] | < 10 | – | –
Cc1c(C)c2c(c(C)c1O)CCC(C)(C)O2 [PMC, 2,2,5,7,8-pentamethyl-6-chromanol, reference compound] | – | – | protection from ox-LDL-induced RPE cell death (ARPE-19 cells [1]; 0.43 μM, ox-LDL 200 μg/ml (FIG. 6)): > 95%; relative RPE protective activity compared with other compounds (ARPE-19 cells [1]): significantly more effective; also recorded: significantly more potent than trolox and butylated hydroxyl toluene (BHT)
Cc1c(C)c2c(c(C)c1O)CCC(C)(C(=O)NCCNS(C)(=O)=O)O2 (centres unmarked) [Q] | ~50 | < 10 | –
CCN(Cc1noc(COC)n1)C(=O)C1(C)CCc2c(C)c(O)c(C)c(C)c2O1 (centres unmarked) [V] | ~30 | < 10 | –
Cc1c(C)c2c(c(C)c1O)CCC(C)(C(=O)NCCCn1cncn1)O2 (centres unmarked) [S] | – | < 10 | –
CC(C)(O)c1coc(S(=O)(=O)NC(=O)Nc2c3c(cc4c2CCC4)CCC3)c1 [MCC950, reference compound] | – | – | protective effect against ox-LDL-induced RPE cell death (ARPE-19 cells [1]; ox-LDL 200 μg/ml (FIG. 6)): did not have any protective effect
CCc1cc(CN(C)C(=O)C2(C)CCc3c(C)c(O)c(C)c(C)c3O2)on1 (centres unmarked) [P] | – | – | cytotoxicity at 0.14 µM (ARPE-19 cells [1]; Homo sapiens, compound 0.14 μM, ARPE-19, ox-LDL 200 μg/ml, 48 hours, LDH assay, read-out: Protective activity against 200 μg/ml ox-LDL (% cell death, compound concentration)): ~60%; cytotoxicity at 0.43 µM (ARPE-19 cells [1]; [4]): < 10%
Cc1c(C)c2c(c(C)c1O)CCC(C)(C(=O)N1CCNC(=O)C1)O2 (centres unmarked) [ZZ] | ~23 | < 13 | –
Cc1cc2n(n1)CCN(C(=O)C1(C)CCc3c(C)c(O)c(C)c(C)c3O1)C2 (centres unmarked) [N] | < 10 | – | –
Cc1c(C)c2c(c(C)c1O)CCC(C)(C(=O)N(C)CCc1cnn(C)c1)O2 (centres unmarked) [J] | – | – | cytotoxicity at 0.43 µM (ARPE-19 cells [1]; [4]): < 10%
Cc1c(C)c2c(c(C)c1O)CCC(C)(C(=O)N1CCC(c3ncc[nH]3)CC1)O2 (centres unmarked) [O] | < 10 | – | –
Cc1c(C)c2c(c(C)c1O)CCC(C)(C(=O)N1CCOCC1)O2 (centres unmarked) [R] | < 10 | – | –
Cc1c(C)c2c(c(C)c1O)CCC(C)(C(=O)N(C)Cc1ncon1)O2 (centres unmarked) [K] | < 10 | – | –
Cc1c(C)c2c(c(C)c1O)CCC(C)(C(=O)N(C)Cc1ncc[nH]1)O2 (centres unmarked) [L] | < 10 | – | –
Cc1c(C)c2c(c(C)c1O)CCC(C)(C(=O)N(C)Cc1cc[nH]n1)O2 (centres unmarked) [Z] | ~22 | < 15 | –
Cc1c(C)c2c(c(C)c1O)CCC(C)(C(=O)N(C)CCCn1cccn1)O2 (centres unmarked) [Y] | ~22 | < 21 | –
